Source: patent US10201532B2, “Compounds and their use” (ALLECRA THERAPEUTICS GMBH, priority 2010, dated 2019)

What was measured:
[1] = tested on: KPC-2 producing K. pneumoniae (ATCC BAA-1705); experiment: Synergistic broth micro-dilution MIC (checkerboard); type: cell-based, Klebsiella pneumoniae; conditions: ATCC BAA-1705
[2] = tested on: KPC-3 expressing E. coli (J53 R6206); experiment: microbe, parasite or virus in culture; type: cell-based, Escherichia coli
Procedure: The β-lactam compound was tested for in vitro antibacterial activities by the broth micro-dilution or agar dilution method as specified in documents published by Clinical and Laboratory Standards Institute (CLSI), USA (formerly NCCLS). Approved standard M7-A7, January 2006, CLSI, Wayne, Pa., USA and M100-S18, January 2008, CLSI, Wayne, Pa., USA.
In agar dilution method briefly, stock solutions of the cephalosporins for veterinary use (e.g. 2 mg/mL) was made in water, 0.1M phosphate buffers or appropriate solvents and the solution was serially two fold diluted. Compound-1 was dissolved in water and Tazobactam (comparator BLI) in 0.1M phosphate buffer, pH 6.0 to get a solution of 1 mg/mL. Cephalosporins were screened in a concentration range of 0.5-32 μg/mL. For combination, Tazobactam or the Compound-1 described herein were tested at a fixed concentration of 4 μg/mL along with the cephalosporins concentration ranging from 0.5 to 32 μg/mL. […] The compound of formula (I) and Tazobactam were also tested individually. The bacterial inoculum was prepared by picking 3 to 5 well isolated bacterial colonies with the same morphological appearance from an 18-24 h old culture and adjusting the turbidity of the saline suspension to 0.5 McFarland turbidity standard equivalent to a bacterial population of ˜1×10^8 CFU per mL of suspension. The suspension was diluted 1:10 in saline to get a bacterial population of ˜1×10^7 CFU/mL as inoculum. This bacterial inoculum was inoculated onto the prepared petri dishes by a multipoint inoculator with each inoculum spot containing ˜1×10^4 CFU of the bacterial strain. The inoculated petri dishes were incubated at 35° C. in an ambient atmosphere for 18-20 h.

[3] = biological target: T1, crude KPC-2 enzyme extract (Klebsiella pneumoniae, UniProt Q9F663); experiment: β-Lactamase inhibitory assay with CENTA substrate; type: biochemical
T1 construct: enzyme extracts from KPC-2 producing and KPC-3 expressing bacterial gram negative strains were used; endogenous in cells; host or cells: KPC-2 producing gram-negative strain
Excerpt: (§1) The Compound-1 was subjected to β-lactamase inhibitory assay to determine IC50 and to compare that with the comparator BLI agents as described elsewhere (Bebrone et. al., Antimicrob. Agents. Chemother, 2001, 45(6): 1868-1871; Jamieson et. al, Antimicrob. Agents. Chemother, 2003, 47(5): 1652-1657). Briefly, enzyme extracts from KPC-2 producing and KPC-3 expressing bacterial gram negative strains were used to study the β-lactamase inhibitory activity and determination of IC50 using CENTA as the substrate for β-lactamase.

[4] = biological target: crude KPC-3 enzyme extract (UniProt Q9F663, H272Y, species not given); experiment: β-Lactamase inhibitory assay with CENTA substrate; type: biochemical; conditions: also headed KPC2
Excerpt: as §1

[5] = tested on: E. coli BAA-201 (TEM-3); experiment: MIC of Piperacillin with inhibitor, ESBL isolates; type: cell-based
[6] = tested on: E. coli BAA-197 (TEM-12); experiment: MIC of Piperacillin with inhibitor, ESBL isolates; type: cell-based, Escherichia coli
[7] = BLI at 4 μg/mL, E. coli J53 R6206

T1 sequence (Q9F663 25-293 limits assumed): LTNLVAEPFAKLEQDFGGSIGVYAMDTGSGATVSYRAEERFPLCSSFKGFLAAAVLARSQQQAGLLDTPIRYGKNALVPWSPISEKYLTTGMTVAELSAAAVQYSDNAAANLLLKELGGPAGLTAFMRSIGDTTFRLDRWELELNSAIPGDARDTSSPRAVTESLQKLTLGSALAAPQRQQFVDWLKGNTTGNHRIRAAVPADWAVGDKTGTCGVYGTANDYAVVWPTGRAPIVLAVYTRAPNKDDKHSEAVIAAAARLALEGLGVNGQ

C[C@]1(Cn2ccnn2)[C@H](C(=O)O)N2C(=O)C[C@H]2S1(=O)=O [Tazobactam]
MIC of Cefquinome in combination with BLI ([1]; BLI at 1 μg/mL): >64 µg/mL
MIC of Ceftiofur in combination with BLI ([1]; BLI at 1 μg/mL): >64 µg/mL
MIC of Cefepime in combination with BLI ([1]; BLI at 2 μg/mL): 64 µg/mL
MIC of Cefotaxime in combination with BLI ([1]; BLI at 2 μg/mL): ≥64 µg/mL
MIC of Cefquinome in combination with BLI ([1]; BLI at 2 μg/mL): >64 µg/mL
MIC of Ceftazidime in combination with BLI ([1]; BLI at 2 μg/mL): >64 µg/mL
MIC of Ceftiofur in combination with BLI ([1]; BLI at 2 μg/mL): >64 µg/mL
MIC of Ceftobiprole in combination with BLI ([1]; BLI at 2 μg/mL): >64 µg/mL
MIC of Imipenem in combination with BLI ([1]; BLI at 2 μg/mL): 16 µg/mL
MIC of Meropenem in combination with BLI ([1]; BLI at 2 μg/mL): 32 µg/mL
MIC of Aztreonam in combination with BLI ([1]; BLI at 4 μg/mL): >64 µg/mL
MIC of Cefadroxil in combination with BLI ([1]; BLI at 4 μg/mL): >64 µg/mL
MIC of Cefalonium in combination with BLI ([1]; BLI at 4 μg/mL): >64 µg/mL
MIC of Cefepime in combination with BLI ([1]; BLI at 4 μg/mL): 64 µg/mL
MIC of Cefotaxime in combination with BLI ([1]; BLI at 4 μg/mL): 32 to 64 µg/mL
MIC of Cefquinome in combination with BLI ([1]; BLI at 4 μg/mL): >64 µg/mL
MIC of Ceftazidime in combination with BLI ([1]; BLI at 4 μg/mL): >64 µg/mL
MIC of Ceftiofur in combination with BLI ([1]; BLI at 4 μg/mL): >64 µg/mL
MIC of Ceftobiprole in combination with BLI ([1]; BLI at 4 μg/mL): >64 µg/mL
MIC of Ertapenem in combination with BLI ([1]; BLI at 4 μg/mL): >64 µg/mL
MIC of Faropenem in combination with BLI ([1]; BLI at 4 μg/mL): >64 µg/mL
MIC of Imipenem in combination with BLI ([1]; BLI at 4 μg/mL): 16 µg/mL
MIC of Meropenem in combination with BLI ([1]; BLI at 4 μg/mL): 32 µg/mL
MIC of Cefepime in combination with BLI ([1]; BLI at 8 μg/mL): 32 µg/mL
MIC of Cefotaxime in combination with BLI ([1]; BLI at 8 μg/mL): 32 µg/mL
MIC of Cefquinome in combination with BLI ([1]; BLI at 8 μg/mL): 64 µg/mL
MIC of Ceftazidime in combination with BLI ([1]; BLI at 8 μg/mL): >64 µg/mL
MIC of Ceftiofur in combination with BLI ([1]; BLI at 8 μg/mL): >64 µg/mL
MIC of Ceftobiprole in combination with BLI ([1]; BLI at 8 μg/mL): >64 µg/mL
MIC of Ertapenem in combination with BLI ([1]; BLI at 8 μg/mL): >64 µg/mL
MIC of Faropenem in combination with BLI ([1]; BLI at 8 μg/mL): >64 µg/mL
MIC of Imipenem in combination with BLI ([1]; BLI at 8 μg/mL): 8 to 16 µg/mL
MIC of Meropenem in combination with BLI ([1]; BLI at 8 μg/mL): 16 to 32 µg/mL
MIC of Aztreonam in combination with BLI ([1]; BLI at 16 μg/mL): >64 µg/mL
MIC of Cefadroxil in combination with BLI ([1]; BLI at 16 μg/mL): >64 µg/mL
MIC of Cefalonium in combination with BLI ([1]; BLI at 16 μg/mL): >64 µg/mL
MIC of Cefepime in combination with BLI ([1]; BLI at 16 μg/mL): 32 µg/mL
MIC of Cefotaxime in combination with BLI ([1]; BLI at 16 μg/mL): 32 µg/mL
MIC of Cefquinome in combination with BLI ([1]; BLI at 16 μg/mL): 64 µg/mL
MIC of Ceftazidime in combination with BLI ([1]; BLI at 16 μg/mL): >64 µg/mL
MIC of Ceftiofur in combination with BLI ([1]; BLI at 16 μg/mL): >64 µg/mL
MIC of Ceftobiprole in combination with BLI ([1]; BLI at 16 μg/mL): >64 µg/mL
MIC of Ertapenem in combination with BLI ([1]; BLI at 16 μg/mL): 64 µg/mL
MIC of Faropenem in combination with BLI ([1]; BLI at 16 μg/mL): >64 µg/mL
MIC of Imipenem in combination with BLI ([1]; BLI at 16 μg/mL): 8 µg/mL
MIC of Meropenem in combination with BLI ([1]; BLI at 16 μg/mL): 8 to 16 µg/mL
MIC of Cefquinome in combination with BLI ([1]; BLI at 32 μg/mL): 64 µg/mL
MIC of Ceftiofur in combination with BLI ([1]; BLI at 32 μg/mL): 64 µg/mL
MIC of Aztreonam in combination with BLI ([1]; BLI at 64 μg/mL): >64 µg/mL
MIC of Cefadroxil in combination with BLI ([1]; BLI at 64 μg/mL): >64 µg/mL
MIC of Cefalonium in combination with BLI ([1]; BLI at 64 μg/mL): >64 µg/mL
MIC of Cefepime in combination with BLI ([1]; BLI at 64 μg/mL): 32 µg/mL
MIC of Cefotaxime in combination with BLI ([1]; BLI at 64 μg/mL): 32 µg/mL
MIC of Cefquinome in combination with BLI ([1]; BLI at 64 μg/mL): 64 µg/mL
MIC of Ceftazidime in combination with BLI ([1]; BLI at 64 μg/mL): 64 µg/mL
MIC of Ceftiofur in combination with BLI ([1]; BLI at 64 μg/mL): 64 µg/mL
MIC of Ceftobiprole in combination with BLI ([1]; BLI at 64 μg/mL): >64 µg/mL
MIC of Ertapenem in combination with BLI ([1]; BLI at 64 μg/mL): 32 µg/mL
MIC of Faropenem in combination with BLI ([1]; BLI at 64 μg/mL): >64 µg/mL
MIC of Imipenem in combination with BLI ([1]; BLI at 64 μg/mL): 4 to 8 µg/mL
MIC of Meropenem in combination with BLI ([1]; BLI at 64 μg/mL): 4 µg/mL
MIC of Cefadroxil in combination with BLI [2, 7]: >32 µg/mL
MIC of Cefalonium in combination with BLI [2, 7]: 32 µg/mL
MIC of Cefquinome in combination with BLI [2, 7]: 8 µg/mL
MIC of Ceftiofur in combination with BLI [2, 7]: 2 µg/mL
MIC ([2]; Escherichia coli, read-out: MIC of BLI alone): > 16 µg/mL
IC50 [3]: 980 µM
IC50 [4]: 71 µM
MIC of Piperacillin with inhibitor ([5]; inhibitor at 1 μg/mL): 4 µg/mL
MIC of Piperacillin with inhibitor ([5]; inhibitor at 2 μg/mL): 4 µg/mL
MIC of Piperacillin with inhibitor ([5]; inhibitor at 4 μg/mL): 2 µg/mL
MIC of Piperacillin with inhibitor ([6]; inhibitor at 1 μg/mL): 64 µg/mL
MIC of Piperacillin with inhibitor ([6]; inhibitor at 2 μg/mL): 8 µg/mL
MIC of Piperacillin with inhibitor ([6]; inhibitor at 4 μg/mL): 4 µg/mL
